Measurements: US20230346820A1, “METHODS AND COMPOSITIONS FOR THE TREATMENT OF SARS-COV-2” (priority 2020, published 2023)
Where two headings read alike, the source gives them in different places.

Assays:
in vitro [1] = conditions: human
Protocol: To assess cell viability, 2 μL of 50% Cell-Titer Glo (Promega No G7573) diluted in water was added to the cells and luminescence measured on an EnVision Plate Reader (Perkin Elmer).
Data analysis. […] Primary in vitro screen and the host cell cytotoxicity counter screen data were uploaded to Genedata Screener, Version 16.0.3-Standard. […] For the uninfected host cell cytotoxicity counter screens, 40 μM puromycin (Sigma) was used as the positive (inhibitory) control in HeLa-ACE2, HepG2 and HEK293T cells, and 30 μM puromycin (Sigma) was used as the positive (inhibitory) control for Calu-3 cells. For dose response experiments compounds were tested in technical triplicates on different assay plates and dose curves were fitted with the four parameter Hill Equation. Technical replicate data were analyzed using median condensing. Geometric means and geometric standard deviations are reported for compound activities (EC50s and CC50s) obtained in multiple independent biological experiments. […] Geometric means were calculated by computing the logarithm (base 10) of all values, calculating the mean of these logarithms, and taking the antilog of that mean. Geometric standard deviations were computed by taking the standard deviation of the log-transformed individual values and taking the antilog of that standard deviation. The geometric standard deviation is a unitless ratio and reported as ×÷ instead of +/−.

SARS-CoV-2 [2] = experiment: microbe, parasite or virus in culture; conditions: Severe acute respiratory syndrome coronavirus 2, Calu-3, 48 h, read-out: Calu-3 CoV-2 EC50 [μM]
SARS-CoV-2 [3] = tested on: SARS-CoV-2
in vitro [4] = conditions: human; remark: listed apart in the source
SARS-CoV-2 [5] = experiment: microbe, parasite or virus in culture
HeLa-ACE2 cells = experiment: cells; assay type: cell-based, human; conditions: Homo sapiens, HeLa-ACE2, read-out: HeLa-ACE-2 EC50 [μM] (Geomeans, n ≥ 2)
SARS-CoV-2 [6] = tested on: SARS-CoV-2; remark: listed apart in the source
SARS-CoV-2 [7] = experiment: Checkerboard synergy study with remdesivir (ZIP model, synergyfinder); assay type: cell-based; conditions: for Synergy score with remdesivir (δ): Table 3
[8] = CC50 [μM] (Geomeans, n ≥ 2 except where indicated: *n = 1)
[9] = HeLa-ACE2 Uninfected Tox CC50 [μM]
[10] = Severe acute respiratory syndrome coronavirus 2, HeLa-ACE2, 24 h, read-out: CoV-2 EC50 [μM] (Geomeans, n ≥ 2)
[11] = Severe acute respiratory syndrome coronavirus 2, HeLa-ACE2, read-out: HeLa-ACE2 CoV-2 EC50 [μM]
[12] = Severe acute respiratory syndrome coronavirus 2, HeLa-ACE2, read-out: SARS CoV-2 EC50 (μM)
[13] = HeLa-ACE2 Uninfected Tox CC50 [μM], Table 4, aggregated data, Geomean, n = 3
[14] = Severe acute respiratory syndrome coronavirus 2, HeLa-ACE2, read-out: HeLa-ACE2 CoV-2 EC50 [μM], Table 4, aggregated data, Geomean, n = 3

| SMILES | CC50 (in vitro [1]) [nM] | EC50 (SARS-CoV-2 [2]) [µM] | Calu3 SI CC50/CoV-2 EC50 (SARS-CoV-2 [3]; Table 4) | CC50 (in vitro [4]; [13]) [µM] | EC50 (SARS-CoV-2 [5]; [14]) [µM] | HeLa-ACE2 SI CC50/CoV-2 EC50 (SARS-CoV-2 [6]; Table 4) | further results |
| --- | --- | --- | --- | --- | --- | --- | --- |
| C[C@H]1O[C@@H](O[C@H]2[C@@H](O)C[C@@H](O[C@@H]3[C@@H](O)C[C@H](O[C@H]4CC[C@@]5(C)[C@H](CC[C@@H]6[C@@H]5C[C@@H](O)[C@]5(C)[C@@H](C7=CC(=O)OC7)CC[C@]65O)C4)O[C@@H]3C)O[C@@H]2C)C[C@H](O)[C@@H]1O (stereo in doubt) [Digoxin] | > 5040 | 0.17 | >29.80 |  |  |  | CC50 (in vitro [4]; [8]): 0.12 µM; CC50 (in vitro [4]; [9]): 0.12 µM; EC50 (SARS-CoV-2 [5]; [10]): 0.166 µM; EC50 (SARS-CoV-2 [5]; [11]): 0.166 µM; EC50 (HeLa-ACE2 cells): 0.325 µM; HeLa-ACE2 CC50/CoV-2 EC50 (SARS-CoV-2 [6]): 0.72; HeLa-ACE2 SI CC50/CoV-2 EC50 (SARS-CoV-2 [6]): 0.72 |
| Nc1nc(N)c2nc(CCc3ccc(C(=O)N[C@@H](CCC(=O)O)C(=O)O)cc3)cnc2n1 [10-deazaaminopterin] |  |  |  |  |  |  | interaction with remdesivir (SARS-CoV-2 [7]): synergized; maximal efficacy (SARS-CoV-2 [7]; compound alone, over the range of concentrations tested): 40%; maximal efficacy (SARS-CoV-2 [7]; with addition of EC2 of remdesivir): ~65%; maximal efficacy (SARS-CoV-2 [7]; with addition of EC24 of remdesivir): > 80% |
| CCN(CC)CCCNc1ccnc2cc(Cl)ccc12 [AQ-13] |  |  |  |  |  |  | CC50 (in vitro [4]; [8]): 25.9 µM; EC50 (SARS-CoV-2 [5]; [10]): 0.8 µM; EC50 (SARS-CoV-2 [5]; [12]): 0.8 µM; HeLa-ACE2 CC50/CoV-2 EC50 (SARS-CoV-2 [6]): 32.34; Synergy score with remdesivir (δ) (SARS-CoV-2 [7]): −1.77 |
| O=c1[nH]c(=O)n([C@@H]2O[C@H](CO)[C@@H](O)[C@H]2O)cc1F [Analog of OGT-719] | 8730 | 1.17 | 7.44 | 0.109 | 4.02 | 0.03 |  |
| COC(=O)[C@@]12OC[C@]34[C@H]([C@@H](O)[C@@H]1O)[C@@]1(C)CC(=O)C(O)=C(C)[C@@H]1C[C@H]3OC(=O)[C@H](OC(=O)/C=C(\C)C(C)C)[C@@H]24 [Bruceantin] | 973 | 0.019 | 50.22 | 0.117 | 0.006 | 20.18 |  |
| COc1ccc2c(c1)[C@]1(CC1c1ccc3c(/C=C/c4ccc(CN5C[C@@H](C)O[C@@H](C)C5)cc4)n[nH]c3c1)C(=O)N2 (some centres unmarked) [CFI-400945] | > 19800 | 3.36 | >5.88 |  |  |  | CC50 (in vitro [4]; [8]): 7.18 µM; CC50 (in vitro [4]; [9]): 7.18 µM; EC50 (SARS-CoV-2 [5]; [10]): > 7 µM; EC50 (SARS-CoV-2 [5]; [11]): > 7 µM; EC50 (HeLa-ACE2 cells): > 0.117 µM; HeLa-ACE2 CC50/CoV-2 EC50 (SARS-CoV-2 [6]): <1.02; HeLa-ACE2 SI CC50/CoV-2 EC50 (SARS-CoV-2 [6]): <1.02 |
| COC1CC(OC2CCC3(C=O)[C@H]4CCC5(C)C(C6=CC(=O)OC6)CCC5(O)[C@@H]4CCC3(O)C2)OC(C)C1O (some centres unmarked) [CYMARINE] | 5870 | 0.135 | 43.53 | 0.287 | 0.237 | 1.21 |  |
| CC[C@H]1CN2CCc3cc(OC)c(OC)cc3[C@@H]2C[C@@H]1C[C@H]1NCCc2cc(O)c(OC)cc21 [Cephaeline] |  | 0.142 | 34.84 |  |  | 12.66 | CC50 at 48 h (in vitro [1]): 4960 nM; CC50 (in vitro [4]): 0.212 µM; EC50 (SARS-CoV-2 [5]; [11]): 0.017 µM |
| C[C@@H]1C[C@@H]([C@H](O)CC2CC(=O)NC(=O)C2)C(=O)[C@@H](C)C1 [Cycloheximide] |  | 0.195 | 12.50 |  |  | 2.32 | CC50 at 48 h (in vitro [1]): 2440 nM; CC50 (in vitro [4]): 1.47 µM; EC50 (SARS-CoV-2 [5]; [11]): 0.634 µM |
| CN1CCN(c2ccc(C(=O)NCc3cnc(C#N)nc3NCC(C)(C)C)cc2)CC1 [Dutacatib] |  |  |  |  |  |  | CC50 (in vitro [4]; [8]): > 36.1 µM; CC50 (in vitro [4]; Uninfected HeLa-ACE2 CC50 (μM)): > 36.1 µM; EC50 (SARS-CoV-2 [5]; [10]): 2.69 µM; EC50 (SARS-CoV-2 [5]; [12]): 2.69 µM; HeLa-ACE2 CC50/CoV-2 EC50 (SARS-CoV-2 [6]): >13.43; Synergy score with remdesivir (δ) (SARS-CoV-2 [7]): 2.955 |
| CNC(=O)n1ccc2cc(Oc3ccnc(NC(=O)c4ccc(C5CCN(CCO)CC5)cc4)c3)c(OCCOC)cc21 [E-7090] | 15000 | 0.753 | 19.88 | 21.2 | 2.65 | 8.01 |  |
| CC[C@H]1CN2CCc3cc(OC)c(OC)cc3[C@@H]2C[C@@H]1C[C@H]1NCCc2cc(OC)c(OC)cc21 [Emetine] | 8870 | 0.444 | 19.97 | 0.34 | 0.06 | 5.66 |  |
| CCCCC1CCc2cc(O)cc3c(CCN4CCN(c5cc(C)ccn5)CC4)c(C)n1c23 (centres unmarked) [KC 11404] |  |  |  |  |  |  | CC50 (in vitro [4]; [8]): > 20.9 µM; CC50 (in vitro [4]; Uninfected HeLa-ACE2 CC50 (μM)): > 20.9 µM; EC50 (SARS-CoV-2 [5]; [10]): 2.5 µM; EC50 (SARS-CoV-2 [5]; [12]): 2.5 µM; HeLa-ACE2 CC50/CoV-2 EC50 (SARS-CoV-2 [6]): >8.39; Synergy score with remdesivir (δ) (SARS-CoV-2 [7]): −2.817 |
| Sc1ncnc2nc[nH]c12 [Mercaptopurine] | 1370 | 0.197 | 6.95 | 19.6 | 3.57 | 5.51 |  |
| CO[C@H]1[C@@H](O)C[C@H](O[C@H]2[C@@H](O)C[C@H](O[C@H]3[C@@H](O)C[C@H](O[C@H]4CC[C@@]5(C)[C@H](CC[C@@H]6[C@@H]5C[C@@H](O)[C@]5(C)[C@@H](C7=CC(=O)OC7)CC[C@]65O)C4)O[C@@H]3C)O[C@@H]2C)O[C@@H]1C [Metildigoxin] |  | 0.399 | 6.22 |  |  | 0.56 | CC50 at 48 h (in vitro [1]): 1240 nM; CC50 (in vitro [4]): 0.159 µM; EC50 (SARS-CoV-2 [5]; [11]): 0.284 µM |
| CCOC(=O)[C@@H]1O[C@H]1C(=O)N[C@@H](CC(C)C)C(=O)N1CCN(Cc2ccc(OC)c(OC)c2OC)CC1 [NCO 700] |  |  |  |  |  |  | CC50 (in vitro [4]; [8]): > 39.8 µM; CC50 (in vitro [4]; Uninfected HeLa-ACE2 CC50 (μM)): > 39.8 µM; EC50 (SARS-CoV-2 [5]; [10]): 0.79 µM; EC50 (SARS-CoV-2 [5]; [12]): 0.79 µM; HeLa-ACE2 CC50/CoV-2 EC50 (SARS-CoV-2 [6]): >50.44; Synergy score with remdesivir (δ) (SARS-CoV-2 [7]): 0.209 |
| CC[C@@H]1/C=C/C=C/C[C@H](C)[C@@H](O)[C@](C)(O)C(=O)[C@H](C)[C@@H](O)[C@H](C)C(=O)[C@H](C)[C@@H](O)[C@H](C)/C=C/C(=O)O[C@H]2[C@@H](C)[C@@H](CC1)O[C@@]1(CC[C@@H](C)[C@@H](C[C@H](C)O)O1)[C@@H]2C [OLIGOMYCINA] | > 29900 | 0.007 | >4000 | 36 | > 9.59 |  |  |
| CC1OC(O[C@H]2CC[C@@]3(C=O)[C@H](CC[C@@H]4[C@@H]3CC[C@]3(C)[C@@H](C5=CC(=O)OC5)CC[C@]43O)C2)C(O)C(O)C1O (some centres unmarked) [Peruvoside (analog)] | 1410 | 0.251 | 5.61 | 0.345 | 0.246 | 1.40 |  |
| CCCCCCCCCCCCCC(=O)O[C@@H]1[C@@H](C)[C@@]2(O)[C@@H](C=C(CO)C[C@]3(O)C(=O)C(C)=C[C@@H]23)[C@@H]2C(C)(C)[C@]12OC(C)=O [Phorbol 12-myristate 13-acetate] | 22500 | 0.016 | 1384.37 | 0.201 | 0.07 | 2.89 |  |
| C=C(C)[C@]12C[C@@H](C)[C@@]34O[C@](Cc5ccccc5)(O[C@@H]1[C@@H]3C=C(COC(=O)Cc1ccc(O)c(OC)c1)C[C@]1(O)C(=O)C(C)=C[C@@H]41)O2 [Resiniferatoxin] |  | 0.903 | 19.13 |  |  | 5.53 | CC50 at 48 h (in vitro [1]): 17300 nM; CC50 (in vitro [4]): 7.17 µM; EC50 (SARS-CoV-2 [5]; [11]): 1.3 µM |
| N=C(N)c1ccc2cc(OC(=O)c3ccc(CNC(=O)CCCC(=O)O)o3)ccc2c1 [TO-195] | > 29900 | 0.657 | >45 | > 39.8 | > 9.59 | >6 |  |
| Nc1ncnc2c1ccn2[C@@H]1O[C@H](CO)[C@@H](O)[C@H]1O [TUBERCIDIN] | 1070 | 0.111 | 9.68 | 0.557 | 0.183 | 3.04 |  |
| O=C(c1ccccc1)c1cccc(NC(=O)c2ccn3c2CSC3c2cccnc2)c1 (centres unmarked) [TULOPAFANT] | 14600 | 2.92 | 5.01 | 36.6 | > 9.59 |  |  |
| CC(=O)O[C@H]1C[C@H](O[C@H]2[C@@H](O)C[C@H](O[C@H]3[C@@H](O)C[C@H](O[C@H]4CCC5(C)[C@H](CC[C@@H]6[C@@H]5CCC5(C)[C@@H](C7=CC(=O)OC7)[C@@H](O)CC65O)C4)O[C@@H]3C)O[C@@H]2C)O[C@H](C)[C@H]1O[C@@H]1O[C@H](CO)[C@@H](O)[C@H](O)[C@H]1O (some centres unmarked) [[…]] | 3370 | 0.688 | 4.90 | 1.75 | 0.803 | 2.175 |  |
| C#C[C@]1(O)CC[C@H]2[C@@H]3CCc4cc(OS(=O)(=O)C(C)C)ccc4[C@H]3CC[C@@]21C [ethinyl estradiol sulfonate] | 6860 | 1.23 | 5.59 | 20.4 | > 9.59 |  |  |
| COc1ccc2c(c1)c(CC(=O)NO)c(C)n2C(=O)c1ccc(Cl)cc1 [oxametacin] | 17700 | 3.56 |  |  |  |  | Calu3 SI CC50/CoV-2 EC50 (SARS-CoV-2 [3]): 4.98; CC50 (in vitro [4]; [9]): 5.87 µM; EC50 (SARS-CoV-2 [5]; [11]): 9.14 µM; HeLa-ACE2 SI CC50/CoV-2 EC50 (SARS-CoV-2 [6]): 0.64 |
| Cn1c(C#N)ccc1-c1ccc2c(c1)C(C)(C)OC(=S)N2 [tanaproget] | 19300 | 2.44 | 7.99 | 0.128 | 0.141 | 0.91 |  |
